Test results taken from patent US20180049996A1, “THERAPEUTIC AGENT FOR CHRONIC RESPIRATORY DISEASE AND COMPOSITION FOR INHIBITING CARDIAC FIBROSIS” (NIPPON HYPOX LABORATORIES INCORPORATED, priority 2015, published 2018).

Key:
Assay type in all cases: in vivo, female SD rats
[1] = system: Myocardial Disorder Induced by Doxorubicin; experiment: Relative weights of the hearts, myocardial disorder induced by doxorubicin; details: Test group 1: doxorubicin 13 mg/kg alone
Excerpt: Doxorubicin is used to produce disease-model animals of cardiomyopathy. […] The recombinant human erythropoietin (rHuEPO) is mainly used in the treatment of renal anemia etc., and has the effect to protect myocardium. The test group 3 is used to confirm the presence or absence of the inhibitory effect brought about by combining HTHQ and rHuEPO on myocardial disorder. […] Recombinant human erythropoietin was daily administered to the rats in test group 3 starting from 3 days before the administration of doxorubicin by intravenous injection. The number of animals in each group was 16. 8 animals of each group were sacrificed after collecting blood on day 7 and 14 after the administration of doxorubicin, and the autopsy of the hearts, the calculation of the relative weights of the hearts, the histopathologic examination of the hearts and the hematological examination were conducted. Myocardium is hypertrophied by fibrosing and the weight of the myocardium increases, and the relative weight of the heart tends to increase. […] Also, there was no significant difference between the other groups on day 7 and 14 after the administration (p<0.05).

[2] = system: Myocardial Disorder Induced by Doxorubicin; experiment: Autopsy and gross pathology of the hearts, myocardial disorder induced by doxorubicin; details: test groups 1 to 3, doxorubicin 13 mg/kg; compared to the control group
Experimental: (§1) Doxorubicin is used to produce disease-model animals of cardiomyopathy. The doxorubicin and 2,3,5-trimethylhydroquinone-1-hexyl ether (HTHQ) as the hydroquinone derivative represented by the general formula (1) described above of the present invention were simultaneously administered to female SD rats of 4 week old after birth to examine the effect of the action. The test groups consisted of the control group to which sterile saline was administered; test group 1 to which doxorubicin (13 mg/kg body weight) alone was administered; test group 2 to which doxorubicin (13 mg/kg body weight) and HTHQ (50 mg/kg body weight) were administered in combination; and test group 3 to which doxorubicin (13 mg/kg body weight), HTHQ (50 mg/kg body weight) and recombinant human erythropoietin (400 IU/kg body weight) were administered in combination. The recombinant human erythropoietin (rHuEPO) is mainly used in the treatment of renal anemia etc., and has the effect to protect myocardium. The test group 3 is used to confirm the presence or absence of the inhibitory effect brought about by combining HTHQ and rHuEPO on myocardial disorder.
(§2) Doxorubicin was orally administered in a single dose to the rats in test groups 1 to 3. […]

[3] = system: Myocardial Disorder Induced by Doxorubicin; experiment: Histopathologic examination of the hearts (light microscope), myocardial disorder induced by doxorubicin; details: Test group 1: doxorubicin 13 mg/kg alone
Experimental: as §1, with “The recombinant human erythropoietin (rHuEPO) is mainly used in the treatment of renal anemia etc., and has the effect to protect myocardium.” left out
Doxorubicin was orally administered in a single dose to the rats in test groups 1 to 3. 2,3,5-trimethylhydroquinone-1-hexyl ether (HTHQ) was orally administered to the rats in test groups 2 and 3 twice in total: 3 days before the administration of doxorubicin and on the day of the administration. Recombinant human erythropoietin was daily administered to the rats in test group 3 starting from 3 days before the administration of doxorubicin by intravenous injection. The number of animals in each group was 16. 8 animals of each group were sacrificed after collecting blood on day 7 and 14 after the administration of doxorubicin, and the autopsy of the hearts, the calculation of the relative weights of the hearts, the histopathologic examination of the hearts and the hematological examination were conducted.
“−” indicates “not found”, “+” indicates “mild”, “++” indicates “moderate”, and “+++” indicates “severe” in severity scores of the table.

[4] = system: Myocardial Disorder Induced by Doxorubicin; experiment: Histopathologic examination of the hearts (transmission electron microscope), myocardial disorder induced by doxorubicin; details: Test group 1: doxorubicin 13 mg/kg alone; day 7
Experimental: as §1, with “The recombinant human erythropoietin (rHuEPO) is mainly used in the treatment of renal anemia etc., and has the effect to protect myocardium.” left out
Doxorubicin was orally administered in a single dose to the rats in test groups 1 to 3. 2,3,5-trimethylhydroquinone-1-hexyl ether (HTHQ) was orally administered to the rats in test groups 2 and 3 twice in total: 3 days before the administration of doxorubicin and on the day of the administration. […]

[5] = system: Creatine phosphokinase (CPK); experiment: Creatine phosphokinase (CPK) value in blood, myocardial disorder induced by doxorubicin; details: Test group 1: doxorubicin 13 mg/kg alone; day 14; p<0.05
Experimental: as §1, §2

COc1cccc2c1C(=O)c1c(O)c3c(c(O)c1C2=O)C[C@@](O)(C(=O)CO)C[C@@H]3O[C@H]1C[C@H](N)[C@H](O)[C@H](C)O1 [doxorubicin, reference compound]
relative weight of the heart ([1]; Day 7 after administration): 0.3819 ± 0.0204%
relative weight of the heart ([1]; Day 14 after administration): 0.3626 ± 0.0221%
gross pathology of the hearts [2]: Apparent lesions were not observed
Severity score: Cell infiltration in interstitial tissue ([3]; Day 7 after administration): +
Severity score: Degeneration of myocardial cells ([3]; Day 7 after administration): ++
Severity score: Loss and disorganization of myocardial fibers ([3]; Day 7 after administration): ++
Severity score: Loss of intercalated discs ([3]; Day 7 after administration): +
Severity score: Loss of striations ([3]; Day 7 after administration): ++
Severity score: Vacuolation of myocardial fibers ([3]; Day 7 after administration): +
Severity score: Cell infiltration in interstitial tissue ([3]; Day 14 after administration): −
Severity score: Degeneration of myocardial cells ([3]; Day 14 after administration): +++
Severity score: Loss and disorganization of myocardial fibers ([3]; Day 14 after administration): +++
Severity score: Loss of intercalated discs ([3]; Day 14 after administration): ++
Severity score: Loss of striations ([3]; Day 14 after administration): +++
Severity score: Vacuolation of myocardial fibers ([3]; Day 14 after administration): +++
findings in myocardial cells (transmission electron microscope) [4]: Loss of striations, loss of intercalated discs, swelling of mitochondria, loss of mitochondrial outer membrane and detachment of cristae etc. were observed
creatine phosphokinase (CPK) value [5]: significantly higher than that of the control group
